{"source": "patent US20110098177A1", "about": "“METHODS AND COMPOSITIONS OF PLANT MICRONUTRIENTS” (NOVUS INTERNATIONAL INC., priority 2006, published 2011)", "format_in_all_cases": "in vivo", "key": {"Aristotle bell pepper [1]": {"system": "Aristotle bell pepper", "settings": "1 week after treatment, scale 0 = no visible injury, 10 = plant death", "procedure,_shortened": "(§1)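 Florida-47 tomato and Aristotle bell pepper transplants in 2-gal pots with low-nutrient medium (pH 5.36), drip-irrigated; products at three rates in deionized water plus non-ionic surfactant sprayed on newly matured leaves at 3 and 7 WAT. Toxicity scored at 4 WAT (0=no damage, 10=death); foliar tissue analysed at 6 WAT; marketable fruit harvested 4 times (tomato).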"}, "Florida-47 tomato [2]": {"system": "Florida-47 tomato", "settings": "1 week after treatment, scale 0 = no visible injury, 10 = plant death", "procedure,_shortened": "as §1"}, "Florida-47 tomato [3]": {"system": "Florida-47 tomato", "assay": "Marketable yield per plant, greenhouse Fall 2007, tomato", "experimental": "(§2) The following experiments were performed in a green house during the fall of 2007 at GCREC, Balm, University of Florida. Fifteen products, at 3 different application rates were examined. The plot size was 2-gallon pots. Crop set-up, procedures and variables were as follows.\n(§3) Transplants of ‘Florida-47’ tomato and ‘Aristotle’ bell pepper plants in the 4-true leaf stage (about 6 inches tall) were planted in 2-gal pots on Aug. 27, 2007. Pots were filled with a commercially available planting medium. This medium was selected based on the mineral composition of the products to be applied without providing significant nutritional inputs to the crops. Irrigation was provided with drip lines delivering between 0.50 and 0.33 gal/day/pot for tomato and bell pepper, respectively, and the crops were irrigated three times per day. No foliar pesticides were necessary.\n(§4) There were four control treatments corresponding to each target micronutrient in which non-Fe, non-Mn, non-Zn or non-Cu pots received all other essential nutrients under non-limiting conditions.\n(§5) Treatments were applied at three rates (high, medium and low) obtained from the estimated concentration of Zn, Fe, Cu, and Mn foliarly-applied in tomato and bell pepper in field situations (Table 1). Products were weighed and dissolved in 200 ml of deionized water with a non-ionic surfactant and applied to the newly-matured open leaves of each crop at 3 and 7 weeks after transplant (WAT). Treated pots were isolated during application to avoid cross-contamination of other treatments.\n(§6) Medium nutrient concentration was determined 1 week before treatment. The mineral composition of the medium was 26.8 ppm NH4—N, 49 ppm NO3—N, 15.8 ppm P, 91.2 ppm K, 82.3 ppm Ca, 58.2 ppm Mg, 23.9 ppm Na, 125.6 ppm S, 1.33 ppm Fe, 0.39 ppm Mn, 0.35 ppm Zn, 0.05 pp, Cu, 0.04 ppm B, 0 ppm Mo, 0.73 ppm Al, and 12.1 ppm Si. The pH of the medium was 5.36 and the electric conductivity was 1.38 mS/cm. The foliar tissue analysis was performed at 6 WAT and the concentration of N, P, K, Mg, Ca, S, B, Zn, Mn, Fe, and Cu was determined by a commercial laboratory. Plant toxicity was determined at 4 WAT by using a 0-10 visual scale, where 0=no visible damage and 10=total plant death. Marketable fruit weight was collected 2 times in bell pepper and 4 times in tomato following USDA standards.\n(§7) Data were analyzed using a general linear model, and means were separated using orthogonal contrasts at the 5% significance level."}, "Aristotle bell pepper [4]": {"system": "Aristotle bell pepper", "assay": "Marketable yield per plant, greenhouse Fall 2007, bell pepper", "experimental": "as §2, §3, §4, §5, §6, §7"}, "Tygress tomato plants [5]": {"system": "Tygress tomato plants", "assay": "Foliar nutrient concentration at 7 WAT, greenhouse tomato spring 2009 (Examples 13-15)", "settings": "7 WAT", "experimental": "(§8) The following experiments were performed in a green house during the spring of 2009 at GCREC, Balm, University of Florida. Crop set-up, procedures and variables were as follows.\n(§9) Transplants of ‘Tygress’ tomato plants were planted in 2-gallon pots filled with commercial planting medium with nutrient concentration of Fe, Zn, Mn, Cu being negligible and insufficient for crop growth. Irrigation and non-micronutrient fertilizer were provided daily through microsprinklers at recommended rates for tomato production in Florida. No pesticides were used. Treatments were as described in Tables 42, 43, and 44 below. BIOX-Cu was compared to Cu-sulfate, BIOX-EDC, and BIOX-O; and BIOX-Fe was compared to Fe-sulfate and BIOX-EDF. BIOX-MEZ is Ca-HMTBA.\n(§10) Treatments were applied at 6 WAT (weeks after transplanting) using a water volume of 200 mL/plant. Deionized water was used for foliar applications. A non-ionic surfactant was added. Other nutrients were applied as appropriate under non-limiting conditions.\nFoliar tissue nutrient analysis was performed at 3 WAT (i.e., 3 weeks before treatment) and 7 WAT (i.e., 1 weeks after treatment) on the non-applied newest leaves. The concentrations of N, P, K, Mg, Ca, B, Zn, Mn, Fe, and Cu in the foliar tissue were determined by a commercial laboratory. There were no significant differences between the foliar nutrient concentrations of any of the treatment groups prior to treatment.\n(§11) Experimental design was a randomized complete block design with 6 replications. Data were analyzed using a general linear model, and means were separated using an LSD test at the 5% significance level."}, "Tygress tomato plants [6]": {"system": "Tygress tomato plants", "assay": "Yields of tomato fruits, greenhouse spring 2009 (Examples 13-15)", "experimental": "as §8, §9, §10\nMarketable fruit were collected three times during the growing season, starting at 10 WAT (4 weeks after the initial treatment). Tomato fruit was graded as marketable and non-marketable. Marketable fruit was sized as extra-large, large, and medium. Non-marketable fruit were harvested and number and weight recorded but not sized.\nas §11"}, "Tygress tomato plants [7]": {"system": "Tygress tomato plants", "settings": "for Toxicity (0-10): 0=no injury, 10=plant death", "experimental": "as §8, §9, §10\nToxicity of the treatments was assessed by rating foliar tissue using a visual scale, where 0=no injury and 10=plant death.\nas §11"}, "[8]": {"settings": "foliar application at 3 and 7 WAT, rates not separated"}}, "note": "Read-outs that look alike come from different tables or passages of the source. Marks after values point to notes of the source that are not given here.", "data": [{"smiles": "CSCCC(O)C(=O)[O-].CSCCC(O)C(=O)[O-].[Ca+2]", "note": "(stereo not shown) [BIOX-MEZ, Ca-HMTBA]", "values": [{"measurement": "Pepper toxicity", "setting": "Aristotle bell pepper [1]; High rate", "value": 0}, {"measurement": "Pepper toxicity", "setting": "Aristotle bell pepper [1]; Low rate", "value": 0}, {"measurement": "Pepper toxicity", "setting": "Aristotle bell pepper [1]; Medium rate", "value": 0}, {"measurement": "Tomato toxicity", "setting": "Florida-47 tomato [2]; High rate", "value": 0}, {"measurement": "Tomato toxicity", "setting": "Florida-47 tomato [2]; Low rate", "value": 0}, {"measurement": "Tomato toxicity", "setting": "Florida-47 tomato [2]; Medium rate", "value": 0}, {"measurement": "Marketable yield per plant, Tomato", "setting": "Florida-47 tomato [3]; [8]", "value": "3.0* lb/plant"}, {"measurement": "Tomato yield compared with control (in words)", "setting": "Florida-47 tomato [3]; foliar applications, P<0.05", "value": "significantly increased"}, {"measurement": "Marketable yield per plant, Pepper", "setting": "Aristotle bell pepper [4]; [8]", "value": "3.2* lb/plant"}, {"measurement": "Bell pepper yield compared with control (in words)", "setting": "Aristotle bell pepper [4]; foliar applications, P<0.05", "value": "significantly increased"}, {"measurement": "Nutrient concentration in tomato leaves: Ca", "setting": "Tygress tomato plants [5]; 0.6 lb/acre", "value": 1.3, "unit": "b %"}, {"measurement": "Nutrient concentration in tomato leaves: K", "setting": "Tygress tomato plants [5]; 0.6 lb/acre", "value": 3.8, "unit": "%"}, {"measurement": "Nutrient concentration in tomato leaves: Mg", "setting": "Tygress tomato plants [5]; 0.6 lb/acre", "value": 0.6, "unit": "%"}, {"measurement": "Nutrient concentration in tomato leaves: N", "setting": "Tygress tomato plants [5]; 0.6 lb/acre", "value": 3.8, "unit": "%"}, {"measurement": "Nutrient concentration in tomato leaves: P", "setting": "Tygress tomato plants [5]; 0.6 lb/acre", "value": 0.6, "unit": "%"}, {"measurement": "Nutrient concentration in tomato leaves: Ca", "setting": "Tygress tomato plants [5]; 1.2 lb/acre", "value": 1.3, "unit": "b %"}, {"measurement": "Nutrient concentration in tomato leaves: K", "setting": "Tygress tomato plants [5]; 1.2 lb/acre", "value": 4.4, "unit": "%"}, {"measurement": "Nutrient concentration in tomato leaves: Mg", "setting": "Tygress tomato plants [5]; 1.2 lb/acre", "value": 0.6, "unit": "%"}, {"measurement": "Nutrient concentration in tomato leaves: N", "setting": "Tygress tomato plants [5]; 1.2 lb/acre", "value": 4.2, "unit": "%"}, {"measurement": "Nutrient concentration in tomato leaves: P", "setting": "Tygress tomato plants [5]; 1.2 lb/acre", "value": 0.7, "unit": "%"}, {"measurement": "Nutrient concentration in tomato leaves: Ca", "setting": "Tygress tomato plants [5]; 2.5 lb/acre", "value": 1.3, "unit": "b %"}, {"measurement": "Nutrient concentration in tomato leaves: K", "setting": "Tygress tomato plants [5]; 2.5 lb/acre", "value": 3.9, "unit": "%"}, {"measurement": "Nutrient concentration in tomato leaves: Mg", "setting": "Tygress tomato plants [5]; 2.5 lb/acre", "value": 0.5, "unit": "%"}, {"measurement": "Nutrient concentration in tomato leaves: N", "setting": "Tygress tomato plants [5]; 2.5 lb/acre", "value": 4.4, "unit": "%"}, {"measurement": "Nutrient concentration in tomato leaves: P", "setting": "Tygress tomato plants [5]; 2.5 lb/acre", "value": 0.7, "unit": "%"}, {"measurement": "Nutrient concentration in tomato leaves: Ca", "setting": "Tygress tomato plants [5]; 4.8 lb/acre", "value": 1.2, "unit": "b %"}, {"measurement": "Nutrient concentration in tomato leaves: K", "setting": "Tygress tomato plants [5]; 4.8 lb/acre", "value": 3.9, "unit": "%"}, {"measurement": "Nutrient concentration in tomato leaves: Mg", "setting": "Tygress tomato plants [5]; 4.8 lb/acre", "value": 0.6, "unit": "%"}, {"measurement": "Nutrient concentration in tomato leaves: N", "setting": "Tygress tomato plants [5]; 4.8 lb/acre", "value": 3.8, "unit": "%"}, {"measurement": "Nutrient concentration in tomato leaves: P", "setting": "Tygress tomato plants [5]; 4.8 lb/acre", "value": 0.6, "unit": "%"}, {"measurement": "Nutrient concentration in tomato leaves: Ca", "setting": "Tygress tomato plants [5]; 7.2 lb/acre", "value": 1.7, "unit": "a %"}, {"measurement": "Nutrient concentration in tomato leaves: K", "setting": "Tygress tomato plants [5]; 7.2 lb/acre", "value": 4.6, "unit": "%"}, {"measurement": "Nutrient concentration in tomato leaves: Mg", "setting": "Tygress tomato plants [5]; 7.2 lb/acre", "value": 0.6, "unit": "%"}, {"measurement": "Nutrient concentration in tomato leaves: N", "setting": "Tygress tomato plants [5]; 7.2 lb/acre", "value": 4.7, "unit": "%"}, {"measurement": "Nutrient concentration in tomato leaves: P", "setting": "Tygress tomato plants [5]; 7.2 lb/acre", "value": 0.7, "unit": "%"}, {"measurement": "Foliar Ca concentration, statement", "setting": "Tygress tomato plants [5]; BIOX-MEZ at a rate of 7.2 lb/acre", "value": "significantly increased"}, {"measurement": "Foliar levels of N, P, K, and Mg, statement", "setting": "Tygress tomato plants [5]; BIOX-MEZ treatment", "value": "not affected"}, {"measurement": "Marketable yield", "setting": "Tygress tomato plants [6]; 0.6 lb/acre", "value": 1100, "unit": "g/plant"}, {"measurement": "Marketable yield", "setting": "Tygress tomato plants [6]; 1.2 lb/acre", "value": 875, "unit": "g/plant"}, {"measurement": "Marketable yield", "setting": "Tygress tomato plants [6]; 2.5 lb/acre", "value": 925, "unit": "g/plant"}, {"measurement": "Marketable yield", "setting": "Tygress tomato plants [6]; 4.8 lb/acre", "value": 1000, "unit": "g/plant"}, {"measurement": "Marketable yield", "setting": "Tygress tomato plants [6]; 7.2 lb/acre", "value": 900, "unit": "g/plant"}, {"measurement": "Marketable or non-marketable yields, statement", "setting": "Tygress tomato plants [6]; BIOX-MEZ treatment", "value": "no change in marketable or non-marketable yields"}, {"measurement": "Toxicity (0-10)", "setting": "Tygress tomato plants [7]; 0.6 lb/acre", "value": 0}, {"measurement": "Toxicity (0-10)", "setting": "Tygress tomato plants [7]; 1.2 lb/acre", "value": 0}, {"measurement": "Toxicity (0-10)", "setting": "Tygress tomato plants [7]; 2.5 lb/acre", "value": 1}, {"measurement": "Toxicity (0-10)", "setting": "Tygress tomato plants [7]; 4.8 lb/acre", "value": 1}, {"measurement": "Toxicity (0-10)", "setting": "Tygress tomato plants [7]; 7.2 lb/acre", "value": 1}, {"measurement": "Toxic effects on the tomato plants, statement", "setting": "Tygress tomato plants [7]; BIOX-MEZ application", "value": "no major toxic effects"}]}]}
